Results from patent publication US20220389058A1, “PEPTIDES AND COMPOSITIONS FOR USE IN COSMETICS AND MEDICINE” (LIPOTRUE, S.L., priority 2019, published 2022).

Legend:
IL33 = IL33 expression modulation by RT-qPCR in HDFa cells (Example 7); assay type: cell-based, Human; conditions: 0.01 mg/mL, 24 hours
Method: (§1) A stock solution of the peptide was prepared in water at 1 mg/mL. Working solution was freshly prepared at the specified concentration from stock solution in the corresponding supplemented medium.
RNA (ribonucleic acid) extraction and RT-qPCR (reverse transcription quantitative polymerase chain reaction) were performed. Briefly, HDFa and HEKa cells were seeded in duplicate (n=2) in 6-well plates at a density of 4×10^5 cells/well and maintained at standard culture conditions (106 Medium supplemented with 1% (v/v) LSGS for HDFa cells; Medium Epilife supplemented with 1% (v/v) EDGS and 1% (v/v) penicillin/streptomycin for HEKa cells; 37° C., 95% room humidity, 5% CO2) for 24 hours. […]
Cells were finally lysed, and replicates were pooled together for RNA extraction using Qiagen RNeasy Mini kit following manufacturer's instructions. […] (Annealing and extension) (Arya, M., Shergill, I. S., Williamson, M., Gommersall, L., Arya, N., Patel, H. R. (2005) Basic principles of real-time quantitative PCR. Expert Rev. Mol. Diagn.; 5(2):209-19; and Jozefczuk, J. and Adjaye, J. (2011) Quantitative real-time PCR-based analysis of gene expression. Methods Enzymol. 500; 99-109).
The obtained data was analysed using the ΔΔCt method, which provides the target gene expression values as fold changes in the treated sample compared with an untreated basal sample. […]

HDFa cells = assay: Expression of genes related with collagen production and extracellular matrix, RT-qPCR in HDFa (Example 10); assay type: cell-based, Human; conditions: 0.01 mg/mL
Method: as §1
RNA (ribonucleic acid) extraction and RT-qPCR (reverse transcription quantitative polymerase chain reaction) were performed. Briefly, HDFa cells were seeded in duplicate (n=2) in 6-well plates at a density of 4×10^5 cells/well and maintained at standard culture conditions (106 Medium supplemented with 1% (v/v) LSGS; 37° C., 95% room humidity, 5% CO2) for 24 hours. Then, cells were treated with peptide Ac-SEQ ID NO: 1-NH2 at the concentration of 0.01 mg/mL for 24 and 48 hours. Untreated cells were used as basal or negative control.
Cells were finally lysed, and replicates were pooled together for RNA extraction using Qiagen RNeasy Mini kit following manufacturer's instructions. Purified RNAs were used to generate the corresponding cDNAs (complementary deoxyribonucleic acids) by reverse transcription using a commercial kit High capacity cDNA reverse transcription kit (Applied Biosystems) which served as templates for amplification. RT-qPCR was performed with the panel of appropriate TaqMan assay probes for genes shown in table 5 (plus GAPDH—Glyceraldehyde 3-phosphate dehydrogenase—that was used as housekeeping gene) and 2×gene expression Master Mix using StepOne plus Real-Time PCR instrument. Amplification included 40 cycles of: 15 seconds at 95° C. (denaturation) and 1 minute at 60° C. (Annealing and extension) (Arya, M., Shergill, I. S., Williamson, M., Gommersall, L., Arya, N., Patel, H. R. (2005) Basic principles of real-time quantitative PCR. Expert Rev. Mol. Diagn.; 5(2):209-19; and Jozefczuk, J. and Adjaye, J. (2011) Quantitative real-time PCR-based analysis of gene expression. Methods Enzymol. 500; 99-109).
The obtained data was analysed using the ΔΔCt method, which provides the target gene expression values as fold changes in the treated sample compared with an untreated basal sample. Both samples were normalized with the relative expression of a housekeeping gene GAPDH (Glyceraldehyde 3-phosphate dehydrogenase).

integrin α9β1 (Itg9) = assay: Integrin α9β1 protein expression, immunofluorescence in HDLMVEC (Example 19); assay type: cell-based, Human
Method: HDLMVEC were cultured on coverslips in Microvascular Endothelial Cell Growth (MECG) Medium at a density of 16.000 cell/cm^2 and 37° C. in a humidified atmosphere with 5% CO2.
When cell confluence was around 70-80%, cells were treated with 0.05 mg/mL Ac-SEQ ID NO:1-NH2 in MECG medium for 24 hours. Then, cells were washed twice with PBS, fixed with 4% formaldehyde and permeabilized with Triton 0.2%. Next, samples were blocked for 1 hour with PBS/BSA 5%, in order to avoid nonspecific antibody binding.
Itg9 was stained with 1:50 anti-Itg9 antibody in PBS/BSA 1%, during 1.5 hours at room temperature. After proper washing with PBS, actin was stained with 50 μg/mL Phalloidin during 1 hour at room temperature. Then, cells were washed with PBS and incubated with 5 μg/mL of the secondary antibody Goat anti-Rabbit IgG for 1 hour at room temperature. Finally, coverslips were mounted using Vectashield with DAPI, that stains nuclei, and samples were kept protected from light at 4° C. until microscopic images were acquired.
Microscopic images were acquired using 10×objective. […]
Images were analyzed using Image J software. Shortly, threshold was adjusted to select Itg9 staining and mean fluorescent was measured. The number of cells was counted using the DAPI staining. […]

[1] = system: recombinant mushroom tyrosinase; assay: Tyrosinase activity, L-DOPA/dopachrome absorbance (Example 11); assay type: biochemical; conditions: 0.05-2.5 mg/mL (Ac-SEQ ID NO: 4-NH2: 0.005-2.5 mg/mL); 30 minutes preincubation, L-DOPA, 2 hours, absorbance 450 nm; vs non-treated control (100%)
Method: Briefly, different concentrations of Ac-SEQ ID NO: 1-NH2 (0.05, 0.25, 0.5 and 2.5 mg/mL), Ac-SEQ ID NO: 2-NH2 (0.05, 0.25, 0.5 and 2.5 mg/mL), Ac-SEQ ID NO: 3-NH2 (0.05, 0.25, 0.5 and 2.5 mg/mL) and Ac-SEQ ID NO: 4-NH2 (0.005, 0.025, 0.05, 0.25, 0.5 and 2.5 mg/mL) and the positive control kojic acid (400 and 800 μM) were incubated with recombinant mushroom tyrosinase for 30 minutes before the addition of L-DOPA (L-3,4 dihidroxiphenilalanine, 2.5 mg/mL in PBS). After 2 hours' reaction at room temperature, the absorbance at 450 nm of each well was determined using the microplate reader Multiskan FC (Thermo Fisher Scientific, Mass., USA), which is directly proportional to the amount of dopachrome in the reaction mixture.

Substance: Ac-Arg-Arg-Gln-Met-Arg-Glu-NH2 (Ac-RRQMRE-NH2) [Ac-SEQ ID NO: 1-NH2]
- IL33 expression, fold change treated cells with regard to basal control (IL33): −1.22 fold change
- COL3A1 Fold change between treated cells and basal control (HDFa cells; 24 hours): 1.32 Fold change
- LAMA1 Fold change between treated cells and basal control (HDFa cells; 24 hours): 1.16 Fold change
- TIMP2 Fold change between treated cells and basal control (HDFa cells; 24 hours): 1.35 Fold change
- MMP1 Fold change between treated cells and basal control (HDFa cells; 48 hours): −1.30 Fold change
- MMP3 Fold change between treated cells and basal control (HDFa cells; 48 hours): −1.69 Fold change
- % Mean of integrin α9β1 (Itg9) compared to untreated cells (integrin α9β1 (Itg9); 0.05 mg/mL, 24 hours, basal = 100.00): 153.56%
- increase of the expression of Itg9 when compared with the untreated cells (integrin α9β1 (Itg9); 24 hours of treatment): > 50%
- tyrosinase activity [1]: inhibited tyrosinase in all the concentrations tested
